Laboratory results as given in patent US20260078103A1, “ISOQUINOLONES AS PI3K INHIBITORS” (OnKure, Inc., priority 2022, published 2026).

System: T47D cells expressing mutant PI3Ka (H1047R)
Experiment: In vitro cell proliferation, T47D cells (CellTiter-Glo)
Format: cell-based
Settings: Homo sapiens, T47D, 72 h, inhibition of proliferation, read-out: Avg T-47D EC50
Method in brief: (§1)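 1,500 cells/well seeded onto pre-stamped 10-pt dilution plates; T47D in RPMI + 10% FBS + insulin 0.2 units/mL, SKBR3 in McCoys 5a + 10% FBS. 72 h, 37 °C, 5% CO2. CTG readout. 0% = 0.1% DMSO, 100% = 10 uM Alpelisib; sigmoidal fit gives EC50.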

SMILES | EC50
Cc1cc([C@@H](C)Nc2ccccc2C(=O)O)c2cc(-c3cnc(C4CC4)s3)n(C)c(=O)c2c1 [Example 239] | 1 to 500 nM
Cc1cc([C@@H](C)Nc2ccccc2C(=O)O)c2cc(-c3cnc4c(c3)CCC4(F)F)n(C)c(=O)c2c1 [Example 240] | 1 to 500 nM
Cc1cc([C@@H](C)Nc2ccccc2C(=O)O)c2cc(-c3ccncc3)n(C)c(=O)c2c1 [Example 241] | 1 to 500 nM
Cc1cc([C@@H](C)Nc2ccccc2C(=O)O)c2cc(N3CCC(C)(C#N)C3)n(C)c(=O)c2c1 (stereo partly shown) [Example 243] | 1 to 500 nM
COc1ncc(-c2cc3c([C@@H](C)Nc4ccccc4C(=O)O)cc(C)cc3c(=O)n2C)cc1F [Example 246] | 2000 to 15000 nM
COCc1ncc(-c2cc3c([C@@H](C)Nc4ccccc4C(=O)O)cc(C)cc3c(=O)n2C)cc1F [Example 247] | 1 to 500 nM
Cc1cc([C@@H](C)Nc2ccccc2C(=O)O)c2cc(-c3cnc4c(c3)CCC4F)n(C)c(=O)c2c1 (stereo partly shown) [Example 248] | 500 to 2000 nM
Cc1cc([C@@H](C)Nc2ccccc2C(=O)O)c2cc(N3CCOCC3)n(C)c(=O)c2c1 [Example 249] | 1 to 500 nM
Cc1cc([C@@H](C)Nc2ccccc2C(=O)O)c2cc(N3CCN(OC(C)C)CC3)n(C)c(=O)c2c1 [Example 250] | 1 to 500 nM
Cc1cc([C@@H](C)Nc2ccccc2C(=O)O)c2cc(-c3cnc4c(c3)CCO4)n(C)c(=O)c2c1 [Example 252] | 1 to 500 nM
Cc1cc([C@@H](C)Nc2ccccc2C(=O)O)c2cc(N3CCN(c4ncn(C)n4)CC3)n(C)c(=O)c2c1 [Example 253] | 500 to 2000 nM
Cc1cc([C@@H](C)Nc2ccccc2C(=O)O)c2cc(N3CCN(c4nccnc4C)CC3)n(C)c(=O)c2c1 [Example 255] | 1 to 500 nM
CCc1ncccc1N1CCN(c2cc3c([C@@H](C)Nc4ccccc4C(=O)O)cc(C)cc3c(=O)n2C)CC1 [Example 257] | 1 to 500 nM

Same assay, conditions: inhibition of proliferation, 72 hours, read-out: Avg T-47D EC50

SMILES | EC50
Cc1cc([C@@H](C)Nc2ccccc2C(=O)O)c2cc(N3CCN(CC(F)(F)C4CC4)CC3)n(C)c(=O)c2c1 [Example 244] | 1 to 500 nM
Cc1cc([C@@H](C)Nc2ccccc2C(=O)O)c2cc(N3CCN(c4cn(C)nn4)CC3)n(C)c(=O)c2c1 [Example 254] | 2000 to 15000 nM
COc1ncccc1N1CCN(c2cc3c([C@@H](C)Nc4ccccc4C(=O)O)cc(C)cc3c(=O)n2C)CC1 [Example 256] | 1 to 500 nM

System: phosphorylation of AKT (pAKT) in T47D cells expressing mutant PI3Ka (H1047R)
Experiment: In vitro cell pAKT (Ser473) HTRF, T47D cells
Format: cell-based
Settings: Homo sapiens, T47D, 6 h, cellular pAKT, T47D cells, mutant PI3Ka (H1047R), 6 hours; read-out: Avg T-47D IC50
Method in brief: (§2)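 pAKT (Ser473) was quantified by HTRF in lysates from cells exposed 6 h at 37 °C to 10-point compound series, with T47D in insulin-supplemented RPMI/10% FBS and SKBR3 in McCoy's 5a/10% FBS. Controls: 0.1% DMSO (high) and 10 uM alpelisib (low). IC50 from sigmoidal curve fitting.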

SMILES | IC50
Cc1cc([C@@H](C)Nc2ccccc2C(=O)O)c2cc(-c3cnc(C4CC4)s3)n(C)c(=O)c2c1 [Example 239] | 1 to 500 nM
Cc1cc([C@@H](C)Nc2ccccc2C(=O)O)c2cc(-c3cnc4c(c3)CCC4(F)F)n(C)c(=O)c2c1 [Example 240] | 1 to 500 nM
Cc1cc([C@@H](C)Nc2ccccc2C(=O)O)c2cc(-c3ccncc3)n(C)c(=O)c2c1 [Example 241] | 1 to 500 nM
Cc1cc([C@@H](C)Nc2ccccc2C(=O)O)c2cc(N3CCC(C)(C#N)C3)n(C)c(=O)c2c1 (stereo partly shown) [Example 243] | 1 to 500 nM
COc1ncc(-c2cc3c([C@@H](C)Nc4ccccc4C(=O)O)cc(C)cc3c(=O)n2C)cc1F [Example 246] | 2000 to 15000 nM
COCc1ncc(-c2cc3c([C@@H](C)Nc4ccccc4C(=O)O)cc(C)cc3c(=O)n2C)cc1F [Example 247] | 1 to 500 nM
Cc1cc([C@@H](C)Nc2ccccc2C(=O)O)c2cc(-c3cnc4c(c3)CCC4F)n(C)c(=O)c2c1 (stereo partly shown) [Example 248] | 1 to 500 nM
Cc1cc([C@@H](C)Nc2ccccc2C(=O)O)c2cc(N3CCOCC3)n(C)c(=O)c2c1 [Example 249] | 1 to 500 nM
Cc1cc([C@@H](C)Nc2ccccc2C(=O)O)c2cc(N3CCN(OC(C)C)CC3)n(C)c(=O)c2c1 [Example 250] | 1 to 500 nM
Cc1cc([C@@H](C)Nc2ccccc2C(=O)O)c2cc(-c3cnc4c(c3)CCO4)n(C)c(=O)c2c1 [Example 252] | 1 to 500 nM
Cc1cc([C@@H](C)Nc2ccccc2C(=O)O)c2cc(N3CCN(c4ncn(C)n4)CC3)n(C)c(=O)c2c1 [Example 253] | 500 to 2000 nM
Cc1cc([C@@H](C)Nc2ccccc2C(=O)O)c2cc(N3CCN(c4nccnc4C)CC3)n(C)c(=O)c2c1 [Example 255] | 1 to 500 nM
CCc1ncccc1N1CCN(c2cc3c([C@@H](C)Nc4ccccc4C(=O)O)cc(C)cc3c(=O)n2C)CC1 [Example 257] | 1 to 500 nM

Same assay, conditions: cellular pAKT, T47D cells, mutant PI3Ka (H1047R), 6 hours; read-out: Avg T-47D IC50

SMILES | IC50
Cc1cc([C@@H](C)Nc2ccccc2C(=O)O)c2cc(N3CCN(CC(F)(F)C4CC4)CC3)n(C)c(=O)c2c1 [Example 244] | 1 to 500 nM
Cc1cc([C@@H](C)Nc2ccccc2C(=O)O)c2cc(N3CCN(c4cn(C)nn4)CC3)n(C)c(=O)c2c1 [Example 254] | 2000 to 15000 nM
COc1ncccc1N1CCN(c2cc3c([C@@H](C)Nc4ccccc4C(=O)O)cc(C)cc3c(=O)n2C)CC1 [Example 256] | 1 to 500 nM

System: SKBR3 cells express WT PI3Ka
Experiment: In vitro cell proliferation, SKBR3 cells (CellTiter-Glo)
Format: cell-based
Settings: Homo sapiens, SK-BR-3, 72 h, inhibition of proliferation
Method in brief: as §1

SMILES | EC50
Cc1cc([C@@H](C)Nc2ccccc2C(=O)O)c2cc(-c3cnc(C4CC4)s3)n(C)c(=O)c2c1 [Example 239] | > 15000 nM
Cc1cc([C@@H](C)Nc2ccccc2C(=O)O)c2cc(-c3cnc4c(c3)CCC4(F)F)n(C)c(=O)c2c1 [Example 240] | > 15000 nM
Cc1cc([C@@H](C)Nc2ccccc2C(=O)O)c2cc(-c3ccncc3)n(C)c(=O)c2c1 [Example 241] | > 15000 nM
Cc1cc([C@@H](C)Nc2ccccc2C(=O)O)c2cc(N3CCC(C)(C#N)C3)n(C)c(=O)c2c1 (stereo partly shown) [Example 243] | > 15000 nM
COc1ncc(-c2cc3c([C@@H](C)Nc4ccccc4C(=O)O)cc(C)cc3c(=O)n2C)cc1F [Example 246] | > 15000 nM
COCc1ncc(-c2cc3c([C@@H](C)Nc4ccccc4C(=O)O)cc(C)cc3c(=O)n2C)cc1F [Example 247] | > 15000 nM
Cc1cc([C@@H](C)Nc2ccccc2C(=O)O)c2cc(-c3cnc4c(c3)CCC4F)n(C)c(=O)c2c1 (stereo partly shown) [Example 248] | > 15000 nM
Cc1cc([C@@H](C)Nc2ccccc2C(=O)O)c2cc(N3CCOCC3)n(C)c(=O)c2c1 [Example 249] | > 15000 nM
Cc1cc([C@@H](C)Nc2ccccc2C(=O)O)c2cc(N3CCN(OC(C)C)CC3)n(C)c(=O)c2c1 [Example 250] | > 15000 nM
Cc1cc([C@@H](C)Nc2ccccc2C(=O)O)c2cc(-c3cnc4c(c3)CCO4)n(C)c(=O)c2c1 [Example 252] | > 15000 nM
Cc1cc([C@@H](C)Nc2ccccc2C(=O)O)c2cc(N3CCN(c4ncn(C)n4)CC3)n(C)c(=O)c2c1 [Example 253] | > 15000 nM
Cc1cc([C@@H](C)Nc2ccccc2C(=O)O)c2cc(N3CCN(c4nccnc4C)CC3)n(C)c(=O)c2c1 [Example 255] | 2000 to 15000 nM
CCc1ncccc1N1CCN(c2cc3c([C@@H](C)Nc4ccccc4C(=O)O)cc(C)cc3c(=O)n2C)CC1 [Example 257] | 2000 to 15000 nM

Same assay, conditions: inhibition of proliferation, 72 hours

SMILES | EC50
Cc1cc([C@@H](C)Nc2ccccc2C(=O)O)c2cc(N3CCN(CC(F)(F)C4CC4)CC3)n(C)c(=O)c2c1 [Example 244] | > 15000 nM
Cc1cc([C@@H](C)Nc2ccccc2C(=O)O)c2cc(N3CCN(c4cn(C)nn4)CC3)n(C)c(=O)c2c1 [Example 254] | > 15000 nM
COc1ncccc1N1CCN(c2cc3c([C@@H](C)Nc4ccccc4C(=O)O)cc(C)cc3c(=O)n2C)CC1 [Example 256] | 2000 to 15000 nM

System: phosphorylation of AKT (pAKT) in SKBR3 cells express WT PI3Ka
Experiment: In vitro cell pAKT (Ser473) HTRF, SKBR3 cells
Format: cell-based
Settings: Homo sapiens, SK-BR-3, 6 h, cellular pAKT
Method in brief: as §2

SMILES | IC50
Cc1cc([C@@H](C)Nc2ccccc2C(=O)O)c2cc(-c3cnc(C4CC4)s3)n(C)c(=O)c2c1 [Example 239] | > 15000 nM
Cc1cc([C@@H](C)Nc2ccccc2C(=O)O)c2cc(-c3cnc4c(c3)CCC4(F)F)n(C)c(=O)c2c1 [Example 240] | > 15000 nM
Cc1cc([C@@H](C)Nc2ccccc2C(=O)O)c2cc(-c3ccncc3)n(C)c(=O)c2c1 [Example 241] | > 15000 nM
Cc1cc([C@@H](C)Nc2ccccc2C(=O)O)c2cc(N3CCC(C)(C#N)C3)n(C)c(=O)c2c1 (stereo partly shown) [Example 243] | > 15000 nM
COc1ncc(-c2cc3c([C@@H](C)Nc4ccccc4C(=O)O)cc(C)cc3c(=O)n2C)cc1F [Example 246] | > 15000 nM
COCc1ncc(-c2cc3c([C@@H](C)Nc4ccccc4C(=O)O)cc(C)cc3c(=O)n2C)cc1F [Example 247] | > 15000 nM
Cc1cc([C@@H](C)Nc2ccccc2C(=O)O)c2cc(-c3cnc4c(c3)CCC4F)n(C)c(=O)c2c1 (stereo partly shown) [Example 248] | > 15000 nM
Cc1cc([C@@H](C)Nc2ccccc2C(=O)O)c2cc(N3CCOCC3)n(C)c(=O)c2c1 [Example 249] | > 15000 nM
Cc1cc([C@@H](C)Nc2ccccc2C(=O)O)c2cc(N3CCN(OC(C)C)CC3)n(C)c(=O)c2c1 [Example 250] | > 15000 nM
Cc1cc([C@@H](C)Nc2ccccc2C(=O)O)c2cc(-c3cnc4c(c3)CCO4)n(C)c(=O)c2c1 [Example 252] | > 15000 nM
Cc1cc([C@@H](C)Nc2ccccc2C(=O)O)c2cc(N3CCN(c4ncn(C)n4)CC3)n(C)c(=O)c2c1 [Example 253] | > 15000 nM
Cc1cc([C@@H](C)Nc2ccccc2C(=O)O)c2cc(N3CCN(c4nccnc4C)CC3)n(C)c(=O)c2c1 [Example 255] | 2000 to 15000 nM
CCc1ncccc1N1CCN(c2cc3c([C@@H](C)Nc4ccccc4C(=O)O)cc(C)cc3c(=O)n2C)CC1 [Example 257] | 2000 to 15000 nM

Same assay, conditions: cellular pAKT, 6 hours

SMILES | IC50
Cc1cc([C@@H](C)Nc2ccccc2C(=O)O)c2cc(N3CCN(CC(F)(F)C4CC4)CC3)n(C)c(=O)c2c1 [Example 244] | 2000 to 15000 nM
Cc1cc([C@@H](C)Nc2ccccc2C(=O)O)c2cc(N3CCN(c4cn(C)nn4)CC3)n(C)c(=O)c2c1 [Example 254] | > 15000 nM
COc1ncccc1N1CCN(c2cc3c([C@@H](C)Nc4ccccc4C(=O)O)cc(C)cc3c(=O)n2C)CC1 [Example 256] | 2000 to 15000 nM
